These are literature values, as cited in patent US20020136782A1, “Composition patent for solid-dosage form of weight loss product” (priority 2001, published 2002).

The conditions of the data set: non-toxic dose; equivalent doses.

For the substance Chromium picolinate, the chromosome damage entry is given as “significant chromosome damage”.

Turning to chromium polynicotinate, the chromosome damage result is on record as “did not cause chromosome damage”.
